The results in this text go back to ChEMBL document CHEMBL5108047 (J Med Chem, 2022).

One data set has as its target DNA polymerase theta (Homo sapiens, UniProt O75417). The data set can be described thus: Inhibition of DNA polymerase theta in LIG4 knock out HEK293T cells assessed as decrease in MMEJ-mediated DNA repair preincubated for 1 day followed by lentivirus solution addition for 24 hrs prior to media replacement with compound and measured after 96 hrs by flow cytometry based traffic-light reporter assay. The data set is classed as cell-based. (In general: In flow cytometry, cells or beads pass a laser one at a time.)

Data set [1] concerns the target T1, DNA polymerase alpha catalytic subunit (Homo sapiens, UniProt P09884).
T1 sequence (P09884 whole entry): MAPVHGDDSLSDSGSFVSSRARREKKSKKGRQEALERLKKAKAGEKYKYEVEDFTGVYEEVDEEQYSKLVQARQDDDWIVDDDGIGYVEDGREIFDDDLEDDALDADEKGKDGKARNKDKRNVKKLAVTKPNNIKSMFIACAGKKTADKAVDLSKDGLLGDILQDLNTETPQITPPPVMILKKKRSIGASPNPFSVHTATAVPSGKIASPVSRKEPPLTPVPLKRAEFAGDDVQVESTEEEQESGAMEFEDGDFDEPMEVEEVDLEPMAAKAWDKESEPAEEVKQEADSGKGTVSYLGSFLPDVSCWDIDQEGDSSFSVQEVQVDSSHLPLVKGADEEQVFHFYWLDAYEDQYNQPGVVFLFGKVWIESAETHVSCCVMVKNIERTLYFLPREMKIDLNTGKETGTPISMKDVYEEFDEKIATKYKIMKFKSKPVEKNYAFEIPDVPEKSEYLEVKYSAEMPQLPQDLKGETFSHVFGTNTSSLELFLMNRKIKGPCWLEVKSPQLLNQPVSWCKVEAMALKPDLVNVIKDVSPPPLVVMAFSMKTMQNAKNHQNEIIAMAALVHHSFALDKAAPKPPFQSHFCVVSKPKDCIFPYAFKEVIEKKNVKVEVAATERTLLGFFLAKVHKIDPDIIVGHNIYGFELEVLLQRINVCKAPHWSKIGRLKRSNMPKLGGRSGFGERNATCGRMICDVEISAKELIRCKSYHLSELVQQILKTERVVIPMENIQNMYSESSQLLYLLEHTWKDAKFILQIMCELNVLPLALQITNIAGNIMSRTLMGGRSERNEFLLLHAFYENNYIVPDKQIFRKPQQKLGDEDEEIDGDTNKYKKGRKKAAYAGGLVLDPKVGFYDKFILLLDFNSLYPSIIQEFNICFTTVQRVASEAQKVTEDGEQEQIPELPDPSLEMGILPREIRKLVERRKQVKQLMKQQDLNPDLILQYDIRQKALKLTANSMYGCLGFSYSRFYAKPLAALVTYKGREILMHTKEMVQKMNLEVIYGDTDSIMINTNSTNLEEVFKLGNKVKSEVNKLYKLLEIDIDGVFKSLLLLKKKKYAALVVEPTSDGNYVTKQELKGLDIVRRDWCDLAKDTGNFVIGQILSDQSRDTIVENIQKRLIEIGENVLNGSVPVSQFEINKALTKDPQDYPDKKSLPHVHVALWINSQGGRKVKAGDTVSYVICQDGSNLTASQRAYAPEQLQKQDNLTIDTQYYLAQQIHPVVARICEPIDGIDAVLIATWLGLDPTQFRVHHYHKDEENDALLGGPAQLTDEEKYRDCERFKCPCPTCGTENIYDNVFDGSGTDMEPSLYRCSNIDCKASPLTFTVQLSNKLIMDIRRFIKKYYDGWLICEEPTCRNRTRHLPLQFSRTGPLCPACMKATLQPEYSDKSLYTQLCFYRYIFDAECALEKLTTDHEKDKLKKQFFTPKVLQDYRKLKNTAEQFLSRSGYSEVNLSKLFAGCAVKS
The data set can be described thus: Inhibition of human DNA polymerase alpha.

Data set [2] is described as follows: Toxicity in CD-1 mouse xenografted with BRCA2 knock out human HCT-116 cells assessed as drug tolerance at 80 mg/kg, po administered twice a day for 21 days. The data set is classed as organism-based. The following applies: in vivo, 504 h, time 21 day.
Data set [3] can be described thus: AUC in CD-1 nude mouse at 80 mg/kg, po administered twice daily and measured on day 1 by HPLC-MS analysis. To be noted: in vivo. The data set is classed as ADME, organism-based. Also on record: dose 80 mg/kg, time 1 day, route po.
In another data set the test system is HCT-116. The data set can be described thus: Antiproliferative activity against BRCA2 knock in human HCT-116 cells assessed as inhibition of cell growth incubated for 7 days with media replacement for every 3 or 4 days. The data set is classed as functional, cell-based.

DNA polymerase theta, sequence (O75417 whole entry): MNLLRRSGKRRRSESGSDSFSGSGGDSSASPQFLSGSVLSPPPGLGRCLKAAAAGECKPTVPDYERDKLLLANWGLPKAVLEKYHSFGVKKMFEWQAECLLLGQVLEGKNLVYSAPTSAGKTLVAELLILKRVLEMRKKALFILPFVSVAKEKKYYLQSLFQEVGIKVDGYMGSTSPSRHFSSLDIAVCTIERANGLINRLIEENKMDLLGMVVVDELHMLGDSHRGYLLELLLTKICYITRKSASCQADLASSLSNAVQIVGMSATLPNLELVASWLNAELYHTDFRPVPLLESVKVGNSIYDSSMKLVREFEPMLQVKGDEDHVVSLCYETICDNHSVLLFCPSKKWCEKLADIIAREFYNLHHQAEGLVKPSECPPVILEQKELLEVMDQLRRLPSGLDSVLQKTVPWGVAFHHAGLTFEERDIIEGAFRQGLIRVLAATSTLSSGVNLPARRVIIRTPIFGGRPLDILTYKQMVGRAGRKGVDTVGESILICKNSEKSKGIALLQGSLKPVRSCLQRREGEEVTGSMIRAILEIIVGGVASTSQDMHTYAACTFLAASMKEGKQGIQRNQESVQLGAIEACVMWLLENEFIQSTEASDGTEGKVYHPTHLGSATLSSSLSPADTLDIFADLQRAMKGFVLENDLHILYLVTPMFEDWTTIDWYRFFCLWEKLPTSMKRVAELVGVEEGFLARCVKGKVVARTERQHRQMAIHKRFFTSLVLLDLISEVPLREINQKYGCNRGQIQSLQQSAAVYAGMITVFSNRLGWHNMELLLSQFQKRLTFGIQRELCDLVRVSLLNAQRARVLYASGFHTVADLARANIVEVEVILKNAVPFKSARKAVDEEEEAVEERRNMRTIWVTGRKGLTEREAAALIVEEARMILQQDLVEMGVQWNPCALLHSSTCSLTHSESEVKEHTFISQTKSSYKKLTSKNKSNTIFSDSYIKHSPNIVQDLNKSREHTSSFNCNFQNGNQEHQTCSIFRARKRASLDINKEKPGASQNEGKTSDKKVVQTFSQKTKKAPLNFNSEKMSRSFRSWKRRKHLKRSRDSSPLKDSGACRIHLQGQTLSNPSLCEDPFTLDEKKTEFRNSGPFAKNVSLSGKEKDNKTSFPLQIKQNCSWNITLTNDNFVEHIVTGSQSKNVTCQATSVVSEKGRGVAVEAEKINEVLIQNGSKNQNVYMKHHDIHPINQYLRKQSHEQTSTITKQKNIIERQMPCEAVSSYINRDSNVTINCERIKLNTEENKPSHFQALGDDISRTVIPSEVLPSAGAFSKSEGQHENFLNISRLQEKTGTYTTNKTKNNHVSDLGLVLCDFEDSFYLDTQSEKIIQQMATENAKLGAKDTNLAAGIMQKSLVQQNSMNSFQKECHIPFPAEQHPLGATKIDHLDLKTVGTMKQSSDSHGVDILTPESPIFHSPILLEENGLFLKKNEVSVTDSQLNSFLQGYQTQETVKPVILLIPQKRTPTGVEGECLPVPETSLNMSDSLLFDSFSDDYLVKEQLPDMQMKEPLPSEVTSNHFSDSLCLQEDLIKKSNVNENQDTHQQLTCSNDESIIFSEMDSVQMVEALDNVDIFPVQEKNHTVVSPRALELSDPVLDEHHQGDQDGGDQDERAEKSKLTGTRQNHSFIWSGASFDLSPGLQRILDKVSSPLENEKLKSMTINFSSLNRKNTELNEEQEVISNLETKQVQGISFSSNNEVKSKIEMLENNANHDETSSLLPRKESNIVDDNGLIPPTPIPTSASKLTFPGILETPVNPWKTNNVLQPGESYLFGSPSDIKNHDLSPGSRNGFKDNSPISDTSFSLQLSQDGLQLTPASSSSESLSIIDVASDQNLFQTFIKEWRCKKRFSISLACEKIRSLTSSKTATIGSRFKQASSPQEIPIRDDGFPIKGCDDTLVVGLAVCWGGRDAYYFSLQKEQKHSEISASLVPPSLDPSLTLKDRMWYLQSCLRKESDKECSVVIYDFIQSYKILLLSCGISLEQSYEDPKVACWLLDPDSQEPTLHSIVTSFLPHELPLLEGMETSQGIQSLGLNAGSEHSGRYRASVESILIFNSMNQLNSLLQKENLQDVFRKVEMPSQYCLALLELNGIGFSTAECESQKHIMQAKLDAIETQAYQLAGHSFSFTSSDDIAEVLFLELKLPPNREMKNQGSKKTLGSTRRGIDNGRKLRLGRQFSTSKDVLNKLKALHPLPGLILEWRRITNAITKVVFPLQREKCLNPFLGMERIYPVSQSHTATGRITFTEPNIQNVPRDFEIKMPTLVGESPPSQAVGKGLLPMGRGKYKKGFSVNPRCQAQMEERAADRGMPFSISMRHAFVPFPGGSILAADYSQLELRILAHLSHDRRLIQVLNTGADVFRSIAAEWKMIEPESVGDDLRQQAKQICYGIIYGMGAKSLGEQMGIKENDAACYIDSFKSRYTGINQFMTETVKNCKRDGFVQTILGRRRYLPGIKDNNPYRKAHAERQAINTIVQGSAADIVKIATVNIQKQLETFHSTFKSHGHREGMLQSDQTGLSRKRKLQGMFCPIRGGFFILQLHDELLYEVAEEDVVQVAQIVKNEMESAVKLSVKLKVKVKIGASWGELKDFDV

By IC50 is commonly meant the midpoint of a concentration-inhibition curve. Usually AUC stands for concentration integrated over time. Read a high AUC as more exposure. Regarding `Nc1ccc(C#CCN(C(=O)Cc2ncc(C(F)(F)F)cc2C(F)(F)F)c2ccc(F)cc2)nn1`, the IC50 is 0.94 µM on DNA polymerase theta, more than 100 µM in data set [1] and more than 15 µM in the data set with HCT-116. For the same compound, in data set [2], the Activity entry is “Non-Toxic”. For the same compound, the AUC at 24 h in data set [3] is 32.6 µM·h.
